Tests used:
[1] = Plasma pharmacokinetics of betahistine and 2-PAA after oral dosing in UVN cats (LC-MS/MS, non-compartmental analysis); type: in vivo, cat; settings: days 1 and 21
Protocol: The experiments were performed on nine adult male UVN cats randomly allocated into three groups of cats. Three groups of three adult male cats received 0.2 mg/kg betahistine (N = 3: cats 1–3), 2 mg/kg betahistine (N = 3: cats 4–6), or 0.2 mg/kg betahistine plus 1 mg/kg selegiline (N = 3: cats 7–9). […] The samples were frozen at −80°C until analysis. Pharmacokinetic parameters of betahistine and its major metabolite 2-PAA were calculated by applying non-compartmental analysis.
Betahistine and its internal standard, betahistine-d3, were extracted by liquid/liquid extraction from plasma under alkaline conditions toward 1-butanol/isooctane, followed by a second liquid/liquid extraction step of acidic 1-butanol/isooctane toward water. Betahistine concentration in plasma was analyzed using a validated LC-MS/MS method. In brief, an API 4000 (Applied Biosystems) mass spectrometer coupled with a Symbiosis HPLC system (Sparks, Emmen, The Netherlands) was employed to analyze betahistine. Extracts (100 μl) were injected into a XTerra RP18 150 ^* 4.6 mm, 3.5 μm column (Waters, Etten-Leur, The Netherlands) and separated at 30°C under isocratic conditions using an aqueous metanol solution containing 0.5 mM ammonium formate as mobile phase. Betahistine was quantified by a tandem mass spectrometer in positive MRM. Parent daughter transition was followed for betahistine (m/z 137 > 94). Betahistine-d3 dihydrochloride was used as internal standard. Pharmacokinetic parameters of betahistine were calculated by applying non-compartmental analysis using the validated PK software WinNonLin, version 5.23 (Pharsight Corporation, Mountain View, CA, USA).
Cmax and tmax were derived directly from the plasma concentration-time curves. Linear trapezoidal rule was used to calculate AUC0-t during the part of the curve with increasing plasma concentrations. For the descending part of the curve, the log-linear trapezoidal rule was used. Calculation of the elimination half-life (t1/2) was evaluated as ln 2/kel, with kel as the slope of the terminal phase of the plasma concentration-time curve.

[2] = tested on: cochlear blood flow; parameters: method as in PMID 25014609; settings: guinea pig model ref 29; cited from earlier work

| Structure (SMILES) | Effect of selegiline co-administration on 2-PAA Cmax-values [1] | Increase in cochlear blood flow [2] |
| --- | --- | --- |
| O=C(O)Cc1ccccn1 [2-PAA, 2-pyridylacetic acid] | strongly reduced | not |
| NCCc1ccccn1 [aminoethylpyridine] | – | observed |
| OCCc1ccccn1 [hydroxyethylpyridine] | – | observed |
